Reference: EP2228429A1, “Shading dye and catalyst combination” (Unilever PLC, priority 2009, dated 2010)

Tests used:
[1] = Example 2: shading of cotton washed with Persil Colour powder containing acid blue 25, catalyst and hydrogen peroxide (reflectometer, delta E); design: key: reflectometer delta E vs cloth washed without added dye or bleach; settings: 0.3% acid blue 25 in powder, 2.5g/L, 30°C, 30 minutes
Method: Various amounts of catalyst AC and DC were separately added to Persil Colour (TM) washing powder, such that when the powder was dosed at 2.5g/L a 1, 2, 4 and 8 micromolar solution of the catalysts were obtained. Persil Colour is a commercial washing powder containing 5-15% anionic surfactant and non-ionic surfactant, 15-30% zeolite and less than 5% soap, polycarboxylate and phosphate. It also contains enzymes. 0.3% of the dye acid blue 25 was also added to the powder. The so-created powders were used to wash bleach non-mercerised woven cotton at 30°C, for 30 minutes with a liquor to cloth ration of 30:1 and 2.5g/L powder. Various amounts of hydrogen peroxide was added to activate the catalyst. Following the wash the clothes were rinsed dried and the shading on the cloth measured using a reflectometer and expressed as the delta E values relative to cloth washed with Persil Colour without added dye or bleach system.

[2] = Example 3: bleaching of BC1 stain monitor cloth with catalyst AC and hydrogen peroxide (delta E); settings: pH=10, 0.5g/L LAS, 30°C, 30 minutes
Method: BC1 (fixed tea stain) bleachable stain test monitor cloth was washed in a bicarbonate buffer (pH=10) with 0.5g/L LAS surfactant, a Liquor to Cloth ratio of 60:1, a temperature of 30°C and a wash time of 30 minutes. The experiment was repeated with various levels of catalyst AC and hydrogen peroxide. The final colour of the cloth was measured and expressed as the delta E relative to a clean piece of cotton. Lower values indicate effective bleaching of the stain.

[3] = Example 7: shading of white cotton washed with Persil Colour containing direct violet 51 and bleach system; settings: 100 ppb direct violet 51, 5g/L Persil Colour, 40°C, 30 minutes
Method: (§1) White non-mercerised cotton sheeting was washed at 40°C in 5g/L Persil Colour for 30 minutes with a liquor to cloth ratio of 60:1. Persil Colour is a zeolite/anionic/non-ionic surfactant based washing powder. Direct Violet 51 was added to the powder such that 100 ppb of direct violet 51 was in the wash liquor.
(§2) The experiment was repeated with the addition of 10 micromolar catalyst with 10 millimolar peroxide and 2 micromolar catalyst with 2 millimolar peroxide. Following rinsing and drying the colour of the cloth was measured relative to a white cotton control cloth washed without addition of direct violet 51.

[4] = Example 7: bleaching of BC1 monitor washed with Persil Colour and bleach system; settings: no direct violet 51, liquor to cloth ratio 120:1
Method: as §1, §2
The experiment was then repeated using a BC1 model tea bleach monitor and a liquor to cloth ratio of 120:1. For clarity no direct violet 51 was added to the Persil Colour in this case.

[5] = Example 1: bleaching of shading dyes in pH=10 buffer by catalyst AC and hydrogen peroxide, from optical density; settings: after 30 minutes at 20 °C; for % bleaching (a): (a) 1 micromolar AC, 1 millimolar hydrogen peroxide; for % bleaching (b): (b) 4 micromolar AC, 4 millimolar hydrogen peroxide
Method: A selection of shading dyes, which deposit onto cotton from wash solutions and have varying structures, was made. Solution of these dyes were made in pH=10 buffer such that the optical density at 1 cm was approximately 1. To this solution the catalyst AC was added alongside hydrogen peroxide such that the concentrations were: • (a) 1 micromolar AC, 1 millimolar hydrogen peroxide • (b) 4 micromolar AC, 4 millimolar hydrogen peroxide The optical density of the dye was measured at the beginning of the experiment and after 30 minutes at 20 °C. From these measurements the % of dye bleaching was calculated using the equation % bleaching = 100 x (ODinitial-OD30 minutes)/ODinitial [formula]

[6] = Example 5: dye bleaching in solution at pH=10 by catalyst and peroxide
From the text: Bleaching was much slower with […] 2 millimolar peroxide.

[7] = Example 6: take up of hydrophobic shading dyes by polyester in a wash with catalyst and hydrogen peroxide (delta E); settings: 0.2ppm dye, 1.8g/L powder, 30 minutes at 20°C
Method: White knitted polyester was washed for 30 minutes at 20°C in 1.8g/L of Brihlante™ washng powder (ex Brasil) with a liquor to cloth ration of 100:1. This is a phosphate/anionic surfactant based powder. Various levels of catalyst BC and hydrogen peroxide was added to the wash liquor alongside 0.2ppm of the hydrophobic shading dyes disperse blue 79:1 (azo dye) and solvent violet 13 (anthraquinone dye). The take up of the hydrophobic shading by the polyester was measured as the delta E relative to white cotton and the results shown below.

[8] = Example 4: bleaching of black tea stain on cotton sheeting; settings: pH=10 solution, 2 micromolar DC and 2 millimolar peroxide; versus control with 2 micromolar Mn(II) and 2 millimolar peroxide
Method: Black tea beverage was created by placing 1 PG Tips pyramid tea bag in 400ml of boiled ultrapure water for 5 minutes. The tea bag was then removed and the beverage cooled to room temperature. Non-mercerised non-fluorescent white cotton sheeting was dipped in the cold tea and removed. The cloth was left to dry for 1 day in the dark, then used for experiments.

[9] = 1 micromolar catalyst, 1 millimolar H2O2, relative to cloth washed without dye or bleach system
[10] = 2 micromolar catalyst, 2 millimolar H2O2
[11] = 4 micromolar catalyst, 4 millimolar H2O2
[12] = 8 micromolar catalyst, 8 millimolar H2O2
[13] = 2 micromolar catalyst, 2 millimolar H2O2, colour relative to white cotton control washed without dye
[14] = 10 micromolar catalyst, 10 millimolar H2O2
[15] = pH=10, 2 micromolar catalyst with 2 millimolar peroxide
[16] = pH=10, 10 micromolar catalyst with 10 millimolar peroxide
[17] = 0 micromolar catalyst, 0 millimolar H2O2
[18] = 1 micromolar catalyst, 1 millimolar H2O2
[19] = 2 millimolar H2O2 without catalyst
[20] = 10 millimolar H2O2 without catalyst

## COC(=O)C12CN(C(C)CN(C)C)CC(C(=O)OC)(C1=O)C(c1ccccn1)N(C)C2c1ccccn1 (stereo not shown) [AC]
[1]; [9]
  Delta E: 5.1
[1]; [10]
  Delta E: 2.0
[1]; [11]
  Delta E: 0.4
[1]; [12]
  Delta E: 0.3
[2]; 1 micromolar AC, 1 millimolar H2O2, relative to clean cotton, lower = effective bleaching
  Delta E: 17.0
[2]; 1 micromolar AC, 2 millimolar H2O2
  Delta E: 16.2
[2]; 2 micromolar AC, 1 millimolar H2O2
  Delta E: 15.9
[2]; 2 micromolar AC, 2 millimolar H2O2
  Delta E: 14.6
[3]; [13]
  White cotton: 1.5
[3]; [14]
  White cotton: 0.5
[4]; [10]
  BC1: 16.5
[4]; [14]
  BC1: 10.9

## Nc1c(N=Nc2ccc([N+](=O)[O-])cc2)c(S(=O)(=O)[O-])cc2cc(S(=O)(=O)[O-])c(N=Nc3ccccc3)c(O)c12.[Na+].[Na+] [Acid black 1]
[5]
  % bleaching (a): 27%
  % bleaching (b): 53%

## Nc1c(S(=O)(=O)[O-])cc(Nc2ccccc2)c2c1C(=O)c1ccccc1C2=O.[Na+] [Acid blue 25]
[5]
  % bleaching (a): 66%
  % bleaching (b): 96%

## O=S(=O)([O-])c1cccc(N=Nc2ccc(N=Nc3ccc(Nc4ccccc4)c4c(S(=O)(=O)[O-])cccc34)c3ccccc23)c1.[Na+].[Na+] [Acid blue 113]
[5]
  % bleaching (a): 79%
  % bleaching (b): 99%

## COC(=O)C12CN(CCN(C)C)CC(C(=O)OC)(C1=O)C(c1ccccn1)N(C)C2c1ccccn1 (stereo not shown) [BC]
[6]; [15]
  bleaching of Acid blue 25 in solution: much slower
  bleaching of Direct violet 51 in solution: much slower
[6]; [16]
  bleaching of Acid blue 25 in solution: effectively bleached
  bleaching of Direct violet 51 in solution: effectively bleached

## COc1cc(N=Nc2c(Br)cc([N+](=O)[O-])cc2[N+](=O)[O-])c(NC(C)=O)cc1N(CCOC(C)=O)CCOC(C)=O [Blue 79:1, disperse blue 79:1]
[7]; [17]
  Delta E: 2.8
[7]; [18]
  Delta E: 2.8
[7]; [14]
  Delta E: 2.3

## COC(=O)C12CN(CCN3CCOCC3)CC(C(=O)OC)(C1=O)C(c1ccccn1)N(C)C2c1ccccn1 (stereo not shown) [CC]
[6]; [15]
  bleaching of Acid blue 25 in solution: much slower
  bleaching of Direct violet 51 in solution: much slower
[6]; [16]
  bleaching of Acid blue 25 in solution: effectively bleached
  bleaching of Direct violet 51 in solution: effectively bleached

## OO [Catalyst H2O2, hydrogen peroxide]
[2]; 0 micromolar AC, 1 millimolar H2O2 alone
  Delta E: 18.5
[2]; 0 micromolar AC, 2 millimolar H2O2 alone
  Delta E: 18.1
[3]; [19]
  White cotton: 1.5
[3]; [20]
  White cotton: 1.4
[4]; [19]
  BC1: 19.3
[4]; [20]
  BC1: 18.9

## Oc1cc(-c2ccccn2)nc(-c2ccccn2)c1 [DC]
[1]; [9]
  Delta E: 12.3
[1]; [10]
  Delta E: 12.2
[1]; [11]
  Delta E: 12.0
[1]; [12]
  Delta E: 11.7
[8]
  bleaching of the tea stain: significantly above that of a control solution

## COc1cc(N=Nc2c(C)cc(C)cc2S(=O)(=O)[O-])c(C)cc1N=Nc1c(S(=O)(=O)[O-])cc2cc(Nc3ccccc3)ccc2c1O.[Na+].[Na+] [Direct violet 51]
[5]
  % bleaching (a): 1%
  % bleaching (b): 29%

## COC(=O)C12CN(CCN3CCCC3)CC(C(=O)OC)(C1=O)C(c1ccccn1)N(C)C2c1ccccn1 (stereo not shown) [EC]
[3]; [13]
  White cotton: 1.5
[3]; [14]
  White cotton: 0.7
[4]; [10]
  BC1: 17.5
[4]; [14]
  BC1: 13.1

## Cc1ccc(Nc2ccc(O)c3c2C(=O)c2ccccc2C3=O)cc1 [Violet 13, solvent violet 13]
[7]; [17]
  Delta E: 4.0
[7]; [18]
  Delta E: 1.6
[7]; [14]
  Delta E: 0.2
